Article PMC12394750, “2H-1,4-Benzoxazin-3(4H)-one linked 1,2,3-triazole derivatives and their study on inducing DNA damage in tumor cells” (Frontiers in Pharmacology, 2025)

Experiments:
KM mice = assay: Acute toxicity test, HE staining of organs; assay type: in vivo; conditions: male KM mice, 500 mg/kg via gavage, 14 consecutive days
Procedure: We assessed the safety of compound c18 using an acute toxicity test in KM mice. Male mice were divided into a control group and a c18-treated group, with the latter receiving 500 mg/kg of compound c18 via gavage for 14 consecutive days, while the control group received an equivalent volume of solvent. To evaluate the safety of compound c18, major organs—including the heart, liver, spleen, lungs, and kidneys—were collected from treated KM mice and subjected to hematoxylin and eosin (HE) staining.

Huh-7 cells [1] = assay: RT-PCR gene expression; assay type: cell-based, human; conditions: Huh-7, 72 h; for ATG7 gene expression / Keap1 gene expression / p21 gene expression / H2AX gene expression / TNF-α gene expression / p53 gene expression: c5, c14, c16 30 μM; for Caspase-7 gene expression: c5, c14 30 μM; for Bax gene expression / Bcl2 gene expression: c14, c16 30 μM
Procedure: To investigate the molecular mechanisms underlying the anti-tumor activity of 2H-1,4-benzoxazin-3(4H)-one linked 1,2,3-triazole derivatives, we examined the expression of key genes involved in cell growth and death, including those related to DNA damage, oxidative stress, apoptosis, and autophagy. Huh-7 cells were treated with compounds c5 (30 μM), c14 (30 μM), c16 (30 μM), and c18 (20 μM) for 72 h, followed by RT-PCR analysis.
FIGURE 5 Compounds c5, c14, c16, and c18 increased the gene expression. (A–D) Huh-7 cells were treated with different concentrations of compounds c5, c14, c16, and c18 (20 or 30 μM) for 72 h. Gene expressions were detected by RT-PCR. Data were presented as means ± SEM; *P < 0.05.
Huh-7 cells were seeded in a 12-well plate and treated with compounds for 72 h. Total RNA was extracted using TRIzol reagent (Ambion, United States), and RT-PCR was performed using PowerUp™ SYBR™ Green Master Mix (ABI, United States). Gene expression was normalized to GAPDH. Values were expressed as mean ± SEM. Statistical significance was assessed using a two-tailed Student’s t-test. P < 0.05 was considered statistically significant.

Huh-7 cells [2] = assay: Western blot protein expression; assay type: cell-based, human; conditions: Huh-7, 72 h (Figure 6 legend 24 h), 20 or 30 μM
Procedure: To further examine the regulatory effects of 2H-1,4-benzoxazin-3(4H)-one linked 1,2,3-triazole derivatives on protein expression, Huh-7 cells were treated with compounds c5, c14, c16, and c18 for 72 h, after which whole-cell protein lysates were collected for analysis.
FIGURE 6 Compounds c5, c14, c16, and c18 affected DNA damage and autophagy. (A–D) Huh-7 cells were treated with different concentrations of compounds c5, c14, c16, and c18 (20 or 30 μM) for 24 h. Protein expressions were analyzed by Western blot. Top: Western blot; bottom: quantitative measurements relative to ACTIN. Data were presented as means ± SEM; *P < 0.05.
Antibodies used in Western blot were as follows: caspase3, caspase9, LC3, γ-H2AX, PARP, cyclin D, cyclin E, β-catenin (all from Cell Signaling Technology, United States), and β-actin (Sigma, United States). Cells were treated with compounds (0 μM, 5 μM, 10 μM, 20 μM, or 30 μM) for 72 h, and the whole-cell proteins were collected using RIPA buffer containing protease/phosphatase inhibitor cocktail. The protein expressions were measured and analyzed using Western blot. Values were expressed as mean ± SEM. Statistical significance was assessed using a two-tailed Student’s t-test. P < 0.05 was considered statistically significant. Data were visualized using GraphPad Prism.

MCF-7 (breast cancer) = assay: CCK-8 cell viability, MCF-7; assay type: cell-based; conditions: Homo sapiens, MCF7, 72 h
Procedure: (§1) To assess the cytotoxic potential of the newly synthesized compounds c1–c20, a panel of human tumor cell lines—including Huh-7 (hepatocellular carcinoma), MCF-7 (breast cancer), and A549 (lung cancer)—was treated with each compound at a concentration of 50 μM for 72 h. Cell viability and cytotoxicity were evaluated using the CCK-8 assay.
(§2) Cells were cultured in DMEM or RPMI 1640 medium with 10% FBS and 1% penicillin/streptomycin at 37 °C and 5% CO2. A CCK-8 assay was performed with several human cancer cell lines, including A549, Huh-7, MCF-7, HCT-116, and SKOV3, according to the instructions. Cells were plated at a density of 1,000–3,000 cells per well in a 96-well plate. After 24-h incubation, cells were treated with 40 μM compounds for 48 h or 50 μM compounds for 72 h. Cell viability was measured by adding 10 μL per well of CCK-8 reagent, which was dissolved in the cell culture medium, for 1 hour. Absorbance was taken at 450 nm using a microplate reader. The IC50 values of the compounds were further determined. Cells were seeded in a 96-well plate at a density of 1 × 10^3 cells/well. After adhering overnight, cells treated with […] concentrations (10 μM, 20 μM, 40 µM, or 80 μM) were used to draw the dose–response curve, and IC50 values were calculated by GraphPad Prism software. The CCK-8 assay was performed in triplicate, and each experiment was repeated at least three times. The results were expressed as mean ± SEM, and P < 0.05 was considered statistically significant.

A549 (lung cancer) = assay: CCK-8 cell viability, A549; assay type: cell-based; conditions: Homo sapiens, 72 h
Procedure: as §1, §2

Row | SMILES | ATG7 gene expression (Huh-7 cells [1]; c18 20 μM) | Keap1 gene expression (Huh-7 cells [1]; c18 20 μM) | p21 gene expression (Huh-7 cells [1]; c18 20 μM) | H2AX protein expression (Huh-7 cells [2]) | LC3 protein expression (Huh-7 cells [2]) | PARP protein expression (Huh-7 cells [2]) | cyclin D protein expression (Huh-7 cells [2]) | viability at 50 µM (MCF-7 (breast cancer)) | viability at 50 µM (A549 (lung cancer)) | Caspase-7 gene expression (Huh-7 cells [1]) | H2AX gene expression (Huh-7 cells [1]; c18 20 μM) | TNF-α gene expression (Huh-7 cells [1]; c18 20 μM) | p53 gene expression (Huh-7 cells [1]; c18 20 μM) | Bax gene expression (Huh-7 cells [1]) | Bcl2 gene expression (Huh-7 cells [1]) | further results
1 | O=C1COc2cc(NC(=O)c3cccc(-c4cn(Cc5ccc(Cl)cc5)nn4)c3)ccc2N1 [compound c18, 3-(1-(4-chlorobenzyl)-1H-1,2,3-triazol-4-yl)-N-(3-oxo-3,4-dihydro-2H-benzo[b][1,4]oxazin-7-yl)benzamide] | downregulated | dramatically upregulated | dramatically upregulated | upregulation | upregulation | upregulation | downregulation | 103 ± 1.83% | 89.8 ± 2.89% | – | – | – | – | – | – | Histopathological changes of heart, liver, spleen, lungs, kidneys (HE staining) (KM mice): no significant histopathological changes; apoptosis-related gene expression (Huh-7 cells [1]; c18 20 μM): no changes
2 | O=C1COc2cc(NC(=O)c3cccc(-c4cn(Cc5ccc(Br)cc5)nn4)c3)ccc2N1 [compound c5, 3-(1-(4-bromobenzyl)-1H-1,2,3-triazol-4-yl)-N-(3-oxo-3,4-dihydro-2H-benzo[b][1,4]oxazin-7-yl)benzamide] | downregulated | significantly upregulated | no significant changes | upregulated | significantly induced | upregulated | downregulated | 107 ± 2.85% | 90.8 ± 5.32% | notably increased | no significant changes | significantly upregulated | no significant changes | – | – | Atg5 gene expression (Huh-7 cells [1]; c5 30 μM): remained unchanged; Gpx4 gene expression (Huh-7 cells [1]; c5 30 μM): either downregulated or unchanged; Nrf2 gene expression (Huh-7 cells [1]; c5 30 μM): either downregulated or unchanged; caspase-3 protein expression (Huh-7 cells [2]): upregulated
3 | O=C1COc2cc(NC(=O)c3cccc(-c4cn(Cc5cccc(F)c5)nn4)c3)ccc2N1 [compound c14, 3-(1-(3-fluorobenzyl)-1H-1,2,3-triazol-4-yl)-N-(3-oxo-3,4-dihydro-2H-benzo[b][1,4]oxazin-7-yl)benzamide] | – | significantly increased | unchanged or downregulated | upregulation | upregulation | upregulation | downregulation | 106 ± 1.48% | 77.5 ± 3.1% | no significant changes | significantly upregulated | – | unchanged or downregulated | no significant changes | significantly increased | autophagy-related gene expression (Huh-7 cells [1]; c14 30 μM): No differences; caspase-6 gene expression (Huh-7 cells [1]; c14 30 μM): no significant changes
4 | O=C1COc2cc(NC(=O)c3cccc(-c4cn(Cc5ccc(C(F)(F)F)cc5)nn4)c3)ccc2N1 [compound c16, N-(3-oxo-3,4-dihydro-2H-benzo[b][1,4]oxazin-7-yl)-3-(1-(4-(trifluoromethyl)benzyl)-1H-1,2,3-triazol-4-yl)benzamide] | downregulated | – | – | upregulation | upregulation | upregulation | downregulation | 101.6 ± 0.92% | 76.8 ± 4.31% | – | markedly upregulated | markedly upregulated | markedly upregulated | elevated | elevated | –
